{"source": "patent US5637624A", "about": "“Ring-substituted 2-amino-1,2,3,4-tetrahydronaphthalenes and 3-aminochromanes” (Eli Lilly and Company, priority 1993, dated 1997)", "key": {"5-HT1A receptors": {"target": "T1, 5-HT1A receptors (Rattus norvegicus, UniProt P19327)", "T1 construct": "synaptosomal membranes isolated from cerebral cortex; from tissue; host or cells: cerebral cortex of male Sprague-Dawley rats, crude synaptosomal membranes", "T1 sequence (P19327 1-422)": "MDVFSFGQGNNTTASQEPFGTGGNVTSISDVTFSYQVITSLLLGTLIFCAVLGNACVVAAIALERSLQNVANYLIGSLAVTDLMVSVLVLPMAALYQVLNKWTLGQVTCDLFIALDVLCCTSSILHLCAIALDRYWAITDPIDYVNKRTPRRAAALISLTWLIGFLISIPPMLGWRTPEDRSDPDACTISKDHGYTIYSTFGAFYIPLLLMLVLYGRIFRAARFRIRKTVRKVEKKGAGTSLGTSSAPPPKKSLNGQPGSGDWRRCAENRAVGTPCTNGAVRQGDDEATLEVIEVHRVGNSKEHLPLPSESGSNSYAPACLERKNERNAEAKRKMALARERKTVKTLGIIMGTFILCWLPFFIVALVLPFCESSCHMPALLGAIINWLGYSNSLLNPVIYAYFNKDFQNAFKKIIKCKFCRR", "assay": "Inhibition of 3H-8-OH-DPAT binding at 5-HT1A in vitro (rat cerebral cortex synaptosomal membranes)", "set-up": "species or system Male Sprague-Dawley rats (cerebral cortex)", "method": "This general procedure is set forth in Wong et al., J. Neural Transm. 71:207-218 (1988).\nMale Sprague-Dawley rats (110-150 g) from Harlan Industries (Cumberland, Ind.) were fed a Purina Chow ad libitum for at least 3 days before being used in the studies. Rats were killed by decapitation. The brains were rapidly removed, and the cerebral cortices were dissected out at 4° C.\nBrain tissues were homogenized in 0.32M sucrose. After centrifugation at 1000×g for 10 min and then at 17000×g for 20 min, a crude synaptosomal fraction was sedimented. The pellet was suspended in 100 vol of 50 mM Tris-HCl, pH 7.4, incubated at 37° C. for 10 min, and centrifuged at 50000×g for 10 min. The process was repeated and the final pellet was suspended in ice-chilled 50 mM Tris-HCl, pH 7.4. By the radioligand binding method, sites specifically labeled by tritiated 8-hydroxy-2-dipropylamino1,2,3,4-tetrahydronaphthalene (^3 H-8-OH-DPAT) have been identified as 5-HT1A receptors.\nBinding of (hu 3H-8-OH-DPAT) was performed according to the previously described method [Wong et. al., J. Neural Transm. 64:251-269 (1985)]. Briefly, synaptosomal membranes isolated from cerebral cortex were incubated at 37° C. for 10 min. in 2 ml of 50 mM Tris-HCl, pH 7.4; 10 μM pargyline; 0.6 mM ascorbic acid; and 0.4 nM ^3 H-8-OH-DPAT. Binding was terminated by filtering samples under reduced pressure through glass fiber (GFB) filters. The filters were washed twice with 5 ml of ice cold buffer and placed in scintillation vials with 10 ml of PCS (Amersham/Searle) scintillation fluid. Radioactivity was measured with a liquid scintillation spectrometer. Unlabeled 8-OH-DPAT at 10 μM was also included in separate samples to establish non-specific binding. Specific binding of ^3 H-8-OH-DPAT is defined as the difference of radioactivity bound in the absence and in the presence of 10 μM unlabeled 8-OH-DPAT."}, "[1]": {"assay": "Effectiveness by subcutaneous (s.c.) administration", "format": "in vivo", "details": "for minimal effective dose: sc, read-out: minimum effective dose when administered subcutaneously"}, "[2]": {"system": "5-hydroxyindoleacetic acid (5-HIAA), a metabolite of 5-HT, in whole brain", "assay": "Effectiveness by oral administration: decrease in brain concentration of 5-HIAA", "format": "in vivo, male Sprague-Dawley rats", "details": "p.o.; for minimal effective dose: Rattus norvegicus, po, 2 h, read-out: minimum effective dose when administered orally; for Percent Reduction over Control (5-HIAA) / 5-HIAA Concentration in Whole Brain: 2 hours; for 5-HIAA Concentration in Whole Brain: control 1.67 ± 0.08", "method": "The activity of compounds of this invention when administered orally was determined and compared with literature compounds structurally related to the compounds of this invention. Thus, the test compound was administered to male Sprague-Dawley rats orally (p.o.), five rats being used in each test group. The rats were sacrificed two hours following p.o. administration, and the brain concentration of 5-hydroxyindoleacetic acid (5-HIAA), a metabolite of 5-HT, was measured."}, "[3]": {"assay": "Hygroscopicity observed on isolation of the salt", "format": "physicochemical", "details": "fumarate salt, recrystallized from ethanol/diethyl ether", "method": "To a solution of water (60 mL) which contains methanesulfonic acid (0.16 mL, 2.33 mMol) was added 2-di-propylamino-8-methylthio-1,2,3,4-tetrahydronaphthalene (630 mg, 2.33 mMol). To this solution was added a solution of sodium metaperiodate (550 mg, 2.57 mMol) in water (10 mL), and the reaction mixture was stirred for two days at room temperature. The reaction mixture was made basic (NH4 OH) and extracted with dichloromethane. The organic extracts were combined, dried (Na2 SO4) and concentrated in vacuo to give the crude title compound as a light yellow oil. Purification by flash chromatography (3% methanol in dichloromethane+tr. NH4 OH) gave the desired product (580 mg, 85%) as a colorless oil. The fumarate salt was formed. […] Drying in a vacuum dessicator (60° C., 18 hours) gave a colorless glass (260 mg, m.p. =63° C.)."}}, "note": "Where a name gives a salt, the structure may show the parent alone. Read-outs that look alike come from different tables or passages of the source."}
{"smiles": "CCCN(CCC)[C@@H]1CCc2cccc(SC)c2[C@@H]1C", "note": "(relative stereo) [Example 8, cis-1-Methyl-2-di-n-propylamino-8-thiomethyl-1,2,3,4-tetrahydronaphthalene]", "values": [{"measurement": "IC50", "setting": "5-HT1A receptors; 0.4 nM 3H-8-OH-DPAT, rat cerebral cortex synaptosomal membranes, 37° C., 10 min, pH 7.4, read-out: IC50, 5HT1a (concentration required to inhibit the binding of 3H-8-OH-DPAT by 50%)", "result": 297, "unit": "nM"}]}
{"smiles": "CCCN(CCC)C1CCc2cccc(SC)c2C1", "note": "(stereo not drawn) [Example 1, 2-Di-n-propylamino-8-thiomethyl1,2,3,4-tetrahydronaphthalene]", "values": [{"measurement": "minimal effective dose", "setting": "[1]", "result": "~0.3", "unit": "mg/kg"}, {"measurement": "potency relative to 8-OH-DPAT, subcutaneous", "setting": "[1]; vs 8-OH-DPAT", "result": "about ten-fold less potent"}, {"measurement": "minimal effective dose", "setting": "[2]", "result": "~1", "unit": "mg/kg"}, {"measurement": "Percent Reduction over Control (5-HIAA)", "setting": "[2]; 0.1 mg/Kg", "result": 0, "unit": "%"}, {"measurement": "5-HIAA Concentration in Whole Brain", "setting": "[2]; 0.1 mg/Kg", "result": "1.56 ± 0.04", "unit": "nmol/g"}, {"measurement": "Percent Reduction over Control (5-HIAA)", "setting": "[2]; 1 mg/Kg", "result": 13, "unit": "%"}, {"measurement": "5-HIAA Concentration in Whole Brain", "setting": "[2]; 1 mg/Kg", "result": "1.45 ± 0.03", "unit": "nmol/g"}, {"measurement": "Percent Reduction over Control (5-HIAA)", "setting": "[2]; 10 mg/Kg", "result": 25, "unit": "%"}, {"measurement": "5-HIAA Concentration in Whole Brain", "setting": "[2]; 10 mg/Kg", "result": "1.25 ± 0.06", "unit": "nmol/g"}, {"measurement": "minimum effective dose relative to 8-OH-DPAT, oral", "setting": "[2]; vs 8-OH-DPAT", "result": "about ten-fold less"}, {"measurement": "IC50", "setting": "5-HT1A receptors", "result": 0.3, "unit": "nM"}]}
{"smiles": "CCCN(CCC)C1CCc2cccc(SCC)c2C1", "note": "(stereo not drawn) [Example 2, 2-Di-n-propylamino-8-thioethyl-1,2,3,4-tetrahydronaphthalene]", "values": [{"measurement": "IC50", "setting": "5-HT1A receptors", "result": 30.7, "unit": "nM"}]}
{"smiles": "CCCN(CCC)C1CCc2cccc(Sc3ccccc3)c2C1", "note": "(stereo not drawn) [Example 3, 2-Di-n-propylamino-8-thiophenyl-1,2,3,4-tetrahydronaphthalene]", "values": [{"measurement": "IC50", "setting": "5-HT1A receptors", "result": 22.2, "unit": "nM"}]}
{"smiles": "CCCN(CCC)C1CCc2cccc(SCc3ccccc3)c2C1", "note": "(stereo not drawn) [Example 4, 2-Di-n-propylamino-8-thiobenzyl-1,2,3,4-tetrahydronaphthalene]", "values": [{"measurement": "IC50", "setting": "5-HT1A receptors", "result": 2.8, "unit": "nM"}]}
{"smiles": "CCCN(CCC)C1CCc2cccc([S+](C)[O-])c2C1", "note": "(stereo not drawn) [Example 5, 2-Di-n-propylamino-8-methylsulfinyl-1,2,3,4-tetrahydronaphthalene]", "values": [{"measurement": "IC50", "setting": "5-HT1A receptors", "result": 71.1, "unit": "nM"}, {"measurement": "hygroscopicity", "setting": "[3]", "result": "extremely hygroscopic"}]}
{"smiles": "CCCN(CCC)C1CCc2cccc(S(C)(=O)=O)c2C1", "note": "(stereo not drawn) [Example 6, 2-Di-n-propylamino-8-methylsulfonyl-1,2,3,4-tetrahydronaphthalene]", "values": [{"measurement": "IC50", "setting": "5-HT1A receptors", "result": 10, "unit": "nM"}]}
{"smiles": "CSc1cccc2c1CC(N(C)C)CC2", "note": "(stereo not drawn) [Example 7, 2-Dimethylamino-8-thiomethyl-1,2,3,4-tetrahydronaphthalene]", "values": [{"measurement": "IC50", "setting": "5-HT1A receptors", "result": 21, "unit": "nM"}]}
{"smiles": "CCCN(CCC)C1CCc2cccc(O)c2C1", "note": "(stereo not drawn) [Example 8-OH-DPAT, 8-hydroxy-2-dipropylamino1,2,3,4-tetrahydronaphthalene, reference compound]", "values": [{"measurement": "minimal effective dose", "setting": "[1]", "result": "~0.03", "unit": "mg/kg"}, {"measurement": "minimal effective dose", "setting": "[2]", "result": "~10", "unit": "mg/kg"}, {"measurement": "Percent Reduction over Control (5-HIAA)", "setting": "[2]; 0.1 mg/Kg", "result": 0, "unit": "%"}, {"measurement": "5-HIAA Concentration in Whole Brain", "setting": "[2]; 0.1 mg/Kg", "result": "1.62 ± 0.07", "unit": "nmol/g"}, {"measurement": "Percent Reduction over Control (5-HIAA)", "setting": "[2]; 1 mg/Kg", "result": 0, "unit": "%"}, {"measurement": "5-HIAA Concentration in Whole Brain", "setting": "[2]; 1 mg/Kg", "result": "1.75 ± 0.05", "unit": "nmol/g"}, {"measurement": "Percent Reduction over Control (5-HIAA)", "setting": "[2]; 10 mg/Kg", "result": 16, "unit": "%"}, {"measurement": "5-HIAA Concentration in Whole Brain", "setting": "[2]; 10 mg/Kg", "result": "1.40 ± 0.06", "unit": "nmol/g"}]}
{"smiles": "CCCN(CCC)C1CCc2cccc(Sc3ccc(C)cc3)c2C1", "note": "(stereo not drawn) [Example 9]", "values": [{"measurement": "IC50", "setting": "5-HT1A receptors", "result": 59, "unit": "nM"}]}
{"smiles": "CCCN(CCC)C1CCc2cccc(Sc3ccccn3)c2C1", "note": "(stereo not drawn) [Example 10]", "values": [{"measurement": "IC50", "setting": "5-HT1A receptors", "result": 9, "unit": "nM"}]}
{"smiles": "CCCN(CCC)C1COc2cccc(SC)c2C1", "note": "(stereo not drawn) [Example 11, 3-(Di-n-propylamino)-5-methylthio-chromane hydrochloride]", "values": [{"measurement": "IC50", "setting": "5-HT1A receptors", "result": 2.5, "unit": "nM"}]}
